Patent publication US20200071316A1, “ACTIVATORS OF THE RETINOIC ACID INDUCIBLE GENE "RIG-I" PATHWAY AND METHODS OF USE THEREOF” (Kineta Immuno-Oncology LLC, priority 2018, published 2020)
Marks after values point to notes of the source that are not given here.

What was measured:
[1] = test system: THP1-Lucia ISG IRF3 −/− cells; experiment: IRF3-deficient THP1-Lucia ISG IRF3 −/− reporter assay (counter-screen); type: cell-based; details: Homo sapiens, 10 μM compound, 18 h after stimulation, read-out: THP1 ISG IRF3 −/−: fold increase of luciferase activity over background
Procedure: (§1) The promotor was comprised of five IFN-stimulated response elements (ISRE) fused to an ISG54 minimal promotor which is unresponsive to NF-kB or AP-1 pathways. […] The IRF3-deficient THP1-Lucia™ ISG IRF3 −/− reporter cell line was generated by CRISPR technology from the parent THP1-Lucia™ ISG reporter cell line.
(§2) 5 THP1-Lucia™ ISG cells and IRF3-deficient THP1-Lucia™ ISG IRF3 −/− cells were differentiated with PMA (100 ng/ml) and stimulated with compounds at the indicated concentrations (5 to 20 μM), positive control, or not treated (background). Luciferase secretion was quantified using the QUANTI-Luc luciferase assay system (InvivoGen) 18 h after stimulation. Data are shown as fold increase luciferase activity over background in Table 7 and represent the IRF3-dependent ISG54 promotor activity by the THP1-Lucia™ ISG cells in response to compounds. […] The fold increase of compounds (10 μM, *20 μM, **5 μM) induced IRF3 dependent luciferase activity is indicated as follows: “−” indicates less than 2.4 fold increase; “+” indicates a 2.4-4.9 fold increase; “++” indicates a 5-9.9 fold increase; “+++” indicates a 10-19 fold increase; “++++” indicates a 20-39 fold increase; “+++++” indicates greater than or equal to 40 fold increase.

[2] = test system: IRF3 signaling pathway (IRF-inducible ISG54 promotor) in THP1-Lucia ISG cells; experiment: THP1-Lucia ISG reporter assay: induction of IRF3-dependent luciferase activity; type: cell-based; details: Homo sapiens, 10 μM compound, PMA-differentiated cells, 18 h after stimulation, read-out: THP1 ISG: fold increase of IRF3-dependent luciferase activity over background
Procedure: The compounds were evaluated in the THP1-Lucia™ ISG (interferon stimulated genes) reporter assay to determine if the compounds activate the IRF3 signaling pathway. The THP1-Lucia™ cells (InvivoGen) express the secreted luciferase (Lucia) reporter gene under the control of an IRF-inducible promotor. The reporter cell line was developed from human monocytic leukemia THP-1 cells.
as §1, §2

[3] = test system: RIG-I deficient CT26 RIG-1−/− cells; experiment: CXCL10 secretion in RIG-I deficient CT26 RIG-1−/− cells (ELISA); type: cell-based, murine; details: 24 h
Procedure: (§3) The CT26 murine colon carcinoma cell line (ATCC) was used to evaluate the induction of CXCL10 secretion. CXCL10 is an important chemokine in tumor immune biology that recruits tumor-specific T cells to the tumor. To confirm that compound-mediated CXCL10 production was RIG-I specific, RIG-I deficient CT2-RIG-1−/− cells were generated by Kineta using CRISPR technology.
(§4) CT26 cells were seeded at a density of 1×10^4 cells per well on a 96-well tissue culture plate in 100 μL of cell culture and cells were incubated at 37° C. and 5% CO2 for 24 hr. Next, CT26 cells were treated with compounds at the indicated concentrations. CXCL10 was quantified by ELISA from supernatants taken 24 h after compound stimulation by use of the CXCL10 DuoSet ELISA kit (Cat # DY466, R&D, Minneapolis, Minn., USA) according to the manufacturer's instructions.
(§5) CXCL10 secretion by CT26 cells in response to compounds (in an amount of 5 to 20 μM) of the present disclosure is shown in Table 8. The compound-induced CXCL10 production was RIG-I dependent, since none of the compounds mediated CXCL10 secretion in RIG-I deficient CT26 RIG-1−/− cells. The compounds (10 μM, *20 μM, **5 μM) are indicated in the table as follows: “−” indicates less than 100 pg/mL; “+” indicates 100-199 pg/mL; “++” indicates 200-399 pg/mL; “+++” indicates 400-799 pg/mL; “++++” indicates 800 to 1599 pg/mL; “+++++” indicates greater than or equal to 1600 pg/ml.

[4] = test system: CXCL10 secretion by CT26 cells; experiment: RIG-I dependent CXCL10 secretion by CT26 colon carcinoma cells (ELISA); type: cell-based, murine; details: 24 h
Procedure: as §3, §4, §5

| SMILES | fold induction at 10 µM [1] | fold induction at 10 µM [2] | CXCL10 secretion by CT26 RIG-I −/− cells ([3]; 10 μM compound) | CXCL10 secretion by CT26 cells ([4]; 10 μM compound) | CXCL10 secretion by CT26 RIG-I −/− cells ([3]; 5 μM compound (**)) | CXCL10 secretion by CT26 cells ([4]; 5 μM compound (**)) |
| --- | --- | --- | --- | --- | --- | --- |
| O=C(Nc1cc2ccc(S(=O)(=O)N3CCCC3)cc2s1)c1cc2ccccc2cc1OCCCCN1CCOCC1 [Example 70, 3-[4-(morpholin-4-yl)butoxy]-N-[6-(pyrrolidine-1-sulfonyl)-1-benzothiophen-2-yl]naphthalene-2-carboxamide] | < 2.4 | 10 to 19 | − (“−” indicates less than 100 pg/mL) | +++ (“+++” indicates 400-799 pg/mL) | – | – |
| O=C(Nc1nc2ccc(S(=O)(=O)N3CC4(COC4)C3)cc2s1)c1cc2ccccc2cc1OCCN1CCOCC1 [Example 65, 3-[2-(morpholin-4-yl)ethoxy]-N-(6-{2-oxa-6-azaspiro[3.3]heptane-6-sulfonyl}-1,3-benzothiazol-2-yl)naphthalene-2-carboxamide] | < 2.4 | 2.4 to 4.9 | − (“−” indicates less than 100 pg/mL) | + (“+” indicates 100-199 pg/mL) | – | – |
| O=C(Nc1nc2ccc(S(=O)(=O)N3CCCC3)cc2s1)c1cc2ccccc2cc1OCCN1CCOCC1 [Example 29, 3-[2-(morpholin-4-yl)ethoxy]-N-[6-(pyrrolidine-1-sulfonyl)-1,3-benzothiazol-2-yl]naphthalene-2-carboxamide] | < 2.4 | ≥ 40 | − (“−” indicates less than 100 pg/mL) | ++++ (“++++” indicates 800 to 1599 pg/mL) | – | – |
| O=C(Nc1nc2ccc(S(=O)(=O)N3CCCC3)cc2s1)c1cc2ccccc2cc1OCCN1CC2CCC1CO2 (centres unmarked) [Example 88, 3-(2-{2-oxa-5-azabicyclo[2.2.2]octan-5-yl}ethoxy)-N-[6-(pyrrolidine-1-sulfonyl)-1,3-benzothiazol-2-yl]naphthalene-2-carboxamide] | < 2.4 | 20 to 39 | – | – | – | – |
| O=C(Nc1nc2ccc(S(=O)(=O)N3CCCC3)cc2s1)c1cc2ccccc2cc1OCCN1C[C@H]2C[C@@H]1CO2 [Example 90] | < 2.4 | 20 to 39 | – | – | – | – |
| COCC1CN(CCOc2cc3ccccc3cc2C(=O)Nc2nc3ccc(S(=O)(=O)N4CCCC4)cc3s2)CCO1 (centres unmarked) [Example 87, 3-{2-[2-(methoxymethyl)morpholin-4-yl]ethoxy}-N-[6-(pyrrolidine-1-sulfonyl)-1,3-benzothiazol-2-yl]naphthalene-2-carboxamide] | < 2.4 | 20 to 39 | – | – | – | – |
| O=C(Nc1nc2ccc(S(=O)(=O)N3CCCC3)cc2s1)c1cc2ccccc2cc1OCCN1CCC(F)(F)CC1 [Example 79, 3-[2-(4,4-difluoropiperidin-1-yl)ethoxy]-N-[6-(pyrrolidine-1-sulfonyl)-1,3-benzothiazol-2-yl]naphthalene-2-carboxamide] | – | – | – | – | −** (“−” indicates less than 100 pg/mL) | +** (“+” indicates 100-199 pg/mL) |
| O=C(Nc1nc2ccc(S(=O)(=O)N3CCCC3)cc2s1)c1cc2c(cc1OCCN1CCOCC1)CCC2 [Example 91, 6-[2-(morpholin-4-yl)ethoxy]-N-[6-(pyrrolidine-1-sulfonyl)-1,3-benzothiazol-2-yl]-2,3-dihydro-1H-indene-5-carboxamide] | < 2.4 | 10 to 19 | – | – | – | – |
| O=C(Nc1nc2ccc(S(=O)(=O)N3CCCC3)cc2s1)c1cc2ccccc2cc1OCCN1CC2CC(C1)O2 [Example 89, 3-(2-{6-oxa-3-azabicyclo[3.1.1]heptan-3-yl}ethoxy)-N-[6-(pyrrolidine-1-sulfonyl)-1,3-benzothiazol-2-yl]naphthalene-2-carboxamide] | < 2.4 | 10 to 19 | – | – | – | – |
| O=C(Nc1cc2ccc(S(=O)(=O)N3CCC3)cc2s1)c1cc2ccccc2cc1OCCCCN1CCOCC1 [Example 86, N-(6-(azetidin-1-ylsulfonyl)benzo[b]thiophen-2-yl)-3-(4-morpholinobutoxy)-2-naphthamide] | < 2.4 | 20 to 39 | – | – | – | – |
